Measurements from US7928085B2, “P-toluene sulfonic acid salt of 5-amino-3-(2′-O-acetyl-3′-deoxy-β-D-ribofuranosyl)-3H-thiazole[4,5-d]pyrimidine-2-one and methods for preparation” (Anadys Pharmaceuticals, Inc., priority 2006, dated 2011).
Counter-ions that a name gives are not always drawn.

Assay: hygroscopicity of the solid form
Type: physicochemical
Conditions: solid substance, amorphous free base versus crystalline p-toluene sulfonic acid salt

Row | Compound | hygroscopicity | hygroscopicity (listed as p-toluene sulfonic salt)
1 | CC(=O)O[C@@H]1C[C@@H](CO)O[C@H]1n1c(=O)sc2cnc(N)nc21 [Formula 5, 5-amino-3-(2′-O-acetyl-3′-deoxy-beta-D-ribofuranosyl)-3H-thiazolo[4,5-d]pyrimidin-2-one] | hydroscopic | –
2 | CC(=O)O[C@@H]1C[C@@H](CO)O[C@H]1n1c(=O)sc2cnc(N)nc21 [Formula (1), p-toluene sulfonic acid salt of 5-amino-3-(2′-O-acetyl-3′-deoxy-beta-D-ribofuranosyl)-3H-thiazolo[4,5-d]pyrimidin-2-one] | – | only slightly hygroscopic
